# Results: patent publication US8586752B1, “Crystalline S-omeprazole strontium hydrate, method for preparing same, and pharmaceutical composition containing same” (Hanmi Science Co., Ltd, priority 2005, dated 2013)
# Like-named read-outs stand apart in the source and are kept apart here.
# What was measured:
# rats = details: dose of 633 mg/kg/day; cited from earlier work
# Hygroscopicity test = assay type: physicochemical; details: for Moisture content: exposed
# Method: The inventive S-omeprazole strontium was exposed in the naked state at 25 to 40° C. and 40 to 90% relative humidity for a period of over 15 days. The moisture contents of the inventive salt measured with a Karl-Fisher titrator at storage time 0, 3, 7 and 15 days are shown in Table 4.
# [1] = Storage stability under long-term, accelerated aging and stressed conditions; assay type: physicochemical; details: 25° C./60% RH exposed; 40° C./75% RH exposed; 60° C./75% RH closed; 2 to 4 weeks
# [2] = Heat stability test of the inventive salt; assay type: physicochemical; details: for Amount of titrated S-omeprazole: sealed, 60° C. and 75% relative humidity
# Method: The salt of Example 1 was stored in the sealed state under a stressed condition of 60° C. and 75% relative humidity, and the remaining amounts of active S-omeprazole after 7, 14, 21 and 28 days were measured by HPLC condition A. The results are shown in Table 5.
# Water-solubility test = assay type: physicochemical; details: for Solubility: deionized water to saturation, 25° C., HPLC condition A; for Saturation pH: saturated solution in deionized water
# Method: The S-omeprazole strontium tetrahydrate of the present invention and the S-omeprazole magnesium trihydrate were each dissolved in deionized water to saturation. The water-solubility of each of the saturated solutions was analyzed by HPLC under the previously described condition A and the amount of each salt hydrate dissolved was measured.
smiles,measurement,setting,value
"[Sr+2] [strontium, Strontium]",Safety,rats,no safety problems
"COc1ccc2nc([S@@+]([O-])Cc3ncc(C)c(OC)c3C)[nH]c2c1 [S-omeprazole strontium tetrahydrate, S-omerprazole strontium tetrahydrate]",Moisture content,"Hygroscopicity test; 40% relative humidity (25° C.), 0 day",9.0 wt %
same,Moisture content,"Hygroscopicity test; 40% relative humidity (25° C.), 3 days",8.9 wt %
same,Moisture content,"Hygroscopicity test; 40% relative humidity (25° C.), 7 days",8.7 wt %
same,Moisture content,"Hygroscopicity test; 40% relative humidity (25° C.), 15 days",8.8 wt %
same,Moisture content,"Hygroscopicity test; 60% relative humidity (25° C.), 0 day",9.0 wt %
same,Moisture content,"Hygroscopicity test; 60% relative humidity (25° C.), 3 days",9.0 wt %
same,Moisture content,"Hygroscopicity test; 60% relative humidity (25° C.), 7 days",9.2 wt %
same,Moisture content,"Hygroscopicity test; 60% relative humidity (25° C.), 15 days",9.1 wt %
same,Moisture content,"Hygroscopicity test; 75% relative humidity (40° C.), 0 day",9.0 wt %
same,Moisture content,"Hygroscopicity test; 75% relative humidity (40° C.), 3 days",8.9 wt %
same,Moisture content,"Hygroscopicity test; 75% relative humidity (40° C.), 7 days",9.0 wt %
same,Moisture content,"Hygroscopicity test; 75% relative humidity (40° C.), 15 days",8.9 wt %
same,Moisture content,"Hygroscopicity test; 90% relative humidity (35° C.), 0 day",9.0 wt %
same,Moisture content,"Hygroscopicity test; 90% relative humidity (35° C.), 3 days",9.2 wt %
same,Moisture content,"Hygroscopicity test; 90% relative humidity (35° C.), 7 days",9.3 wt %
same,Moisture content,"Hygroscopicity test; 90% relative humidity (35° C.), 15 days",9.2 wt %
same,Hygroscopicity,Hygroscopicity test; under a highly humid condition,less hygroscopic
same,Initial moisture content,Hygroscopicity test; under a low humidity condition,maintained
same,Stability on storage,[1],"maintain the initial moisture content, purity and crystallinity"
same,Amount of titrated S-omeprazole,[2]; 7 days,997 µg/mg
same,Amount of titrated S-omeprazole,[2]; 14 days,998 µg/mg
same,Amount of titrated S-omeprazole,[2]; 21 days,997 µg/mg
same,Amount of titrated S-omeprazole,[2]; 28 days,997 µg/mg
same,Amount of titrated S-omeprazole,[2]; Initial,997 µg/mg
same,Heat stability,"[2]; summary of Table 5 (60° C., 75% relative humidity, sealed, up to 28 days)",highly stable
same,Solubility,"Water-solubility test; 25 °C, water, thermodynamic from solid, read-out: Solubility",~17.6 mg/mL
same,Solubility,Water-solubility test,17.6 mg/mL
same,Saturation pH,Water-solubility test,10.2
same,Water solubility relative to S-omeprazole magnesium trihydrate,Water-solubility test; times higher than S-omeprazole magnesium trihydrate,at least 10 times
"COc1ccc2[n-]c([S+]([O-])Cc3ncc(C)c(OC)c3C)nc2c1.COc1ccc2[n-]c([S+]([O-])Cc3ncc(C)c(OC)c3C)nc2c1.O.O.O.[Mg+2] (centres unmarked) [Magnesium trihydrate, S-Omeprazole Magnesium Trihydrate, reference compound]",Solubility,Water-solubility test,1.5 mg/mL
same,Saturation pH,Water-solubility test,9.9
